“Also recorded” adds a separate entry of the source.
Tests used:
OVA-sensitized mice [1] = assay: Bronchial hyperreactivity (BHR) to i.v. metacholine, dynamic resistance and compliance; type: in vivo, BALB/c mice; settings: M0014 prior to each allergen challenge; measured 24 hours after the last OVA aerosol; FIG. 2
Experimental: (§1) BALB/c mice (n=6-8 per group) were sensitized to OVA by i.p. injection of OVA/alum (10 μg OVA grade V adsorbed to 1 mg aluminium hydroxide; Sigma-Aldrich) on days 0 and 7 and were subjected to OVA aerosol challenges (grade III) on days 17-19; aerosol challenges were dispensed from a jet nebulizer delivering 1% OVA in PBS for 30 minutes. Thirty minutes before each OVA exposure, mice were anesthetized using Avertin (Sigma-Aldrich) and received an i.t. injection of control vehicle, or of M0014 (0.1, 0.4 or 4 nM in PBS) in a volume of 80 μl. Twenty-four hours after the last OVA exposure, BAL was performed and LNs were resected and digested using collagenase/DNAse.
For the measurement of dynamic resistance and compliance, mice were anesthetized with urethane, paralyzed using d-tubocurarine, tracheotomized, and intubated with an 18-gauge catheter, followed by mechanical ventilation with a Flexivent apparatus (SCIREQ). Respiratory frequency was set at 120 breaths per min with a tidal volume of 0.2 ml and a positive end-expiratory pressure of […]. Increasing concentrations of metacholine were administered via the jugular vein. Dynamic resistance and compliance was recorded after a standardized inhalation maneuver given every 10 seconds for 2 minutes. Baseline resistance was restored before administering the subsequent doses of metacholine.

dog [2] = assay: Dog model of delayed gastric emptying of a liquid meal; type: in vivo; settings: data not shown
Source text: (§2) Also the aroylated 4-aminomethylpiperidines 5-HT4 receptor antagonists (hereinafter also referred to as the compounds) of the present invention (e.g. compound M0014) were capable to suppress or inverse the 5-HT4 R-mediated prokinetic activity of serotonin or 5-HT4 R agonists in the GI tract (data not shown). For example, in conscious dogs, low doses of M0014 reversed the selective serotonin re-uptake inhibitor (SSRI)-induced loss of fundic compliance. […] As a final example, the compound reversed the 5-HT4 R agonist-induced stimulation of canine antral motility, measured with chronically implanted strain gauges.

dog [3] = assay: Canine antral motility measured with chronically implanted strain gauges; type: in vivo; settings: data not shown
Source text: as §2

conscious dogs = assay: SSRI-induced loss of fundic compliance in conscious dogs; type: in vivo, dog; settings: low doses, data not shown
Source text: as §2

GI tract [4] = assay: Effect of the antagonist by itself on the studied GI functions; type: in vivo, dog; settings: without agonist
Source text: as §2
Similar to SB-207266, the 5-HT4 R antagonist M0014 had by itself no effect on the studied GI functions mentioned above.

Balb/c mice = assay: Zymosan induced inflammatory cell recruitment to the lung; type: in vivo, Female Balb/c mice
Experimental: Female Balb/c mice (7-8 weeks; 20 g) were used in all studies. The animals were kept in standard animal holding facilities and have unlimited access to food and water. Animals were randomized to receive vehicle or 0.1-0.2 ml/20 g mouse, M0014 (0.001, 0.01, 0.1 and 1 mg/kg) via the oral route 30 min prior to, and 6 h after the administration of zymosan (i.n; 20 μL to each nostril, to give a total volume of administration of 40 μL). Animals received zymosan A to give a total dose of 4 mg/mouse.
5 mg of M0014 was dissolved in 5 mL of sterile water to give 1 mg/ml solution. The solutions were prepared freshly each time. The 1 mg/ml solution was diluted to a 0.1, 0.01, 0.001 and 0.0001 mg/ml solution. From these concentrations, 0.2 ml was administered orally to obtain 1, 0.1, 0.01 and 0.001 mg/kg respectively. Sterile water used as control vehicle.
Twenty-four hours after dosing, the mice were killed by overdose with an injectable anaesthetic and 0.5 ml of saline was injected into lung via a tracheal cannula and the fluid collected. This was repeated 3 times. Approximately 1 ml of lavage fluid was collected and stored on ice. Total cells and differential cells were counted and a reduction in neutrophil numbers was the primary end point.

OVA-sensitized mice [5] = assay: OVA-induced experimental asthma in mice: BAL cell infiltrate and MLN cytokines; type: in vivo, BALB/c mice
Experimental: as §1
Flow cytometry and sorting. After counting and washing, BAL cells were stained for 30 minutes with FITC-labeled anti-I-Ad/I-Ed (macrophages/DCs), PE-labeled anti-CCR3 (eosinophils), Cy-chrome-labeled anti-CD3 and anti-CD19 (lymphocytes), and allophycocyanin-labeled (APClabeled) anti-CD11c (macrophages/DCs) in PBS containing 0.5% BSA and 0.01% sodium azide. Differential cell counts were analyzed by flow cytometry, as previously described (van Rijt et al., 2004).
Cytokine measurements. To measure cytokine levels, MLN cells were plated in round-bottomed 96-well plates (1×10^6 cells/ml) and restimulated with OVA (10 μg/ml) for 4 days. The presence of IL-4, IL-5, IL-13 and IFN-γ was assayed on supernatants by ELISA (BD).

guinea-pigs = settings: antigen induced, guinea pig model; cited from earlier work
[6] = tested on: human airway epithelial cells, dendritic cells, monocytes; settings: no effect of the antagonist per se described; cited from earlier work
GI tract [7] = settings: Sanger et al., cited from earlier work
[8] = MLN cells restimulated with OVA for 4 days, ELISA, FIG. 1C and D
[9] = i.t. 80 μl, 0.1, 0.4 or 4 nM, 30 minutes prior to each allergen challenge, FIG. 1A

With `COCCCN1CC[C@@H](CNC(=O)c2cc(C)cc3c2OCCCO3)[C@H](O)C1` (relative stereo) [M0014, (3S-trans)-8-methyl-3,4-dihydro-3H-benzo[b][1,4]dioxepine-6-carboxylic acid [3-hydroxy-1-(3-methoxy-propyl)-piperidine-4-ylmethyl]-amide] the “OVA-induced change in metacholine responsiveness” value (OVA-sensitized mice [1]) was “markedly attenuated”, the “5-HT4 R agonist-induced acceleration of gastric emptying” value (dog [2]) was “potently inhibited” and the “5-HT4 R agonist-induced stimulation of canine antral motility” value (dog [3]) was “reversed”. For the same compound, the “SSRI-induced loss of fundic compliance” value (conscious dogs) was “reversed”, the “effect by itself on the studied GI functions” value (GI tract [4]) was “no effect” and the neutrophil cell number (Balb/c mice; FIG. 3 legend, <0.05 cf zymosan alone) was “significant effect”. The “total number of cells recruited to the airways” value (Balb/c mice; oral, 0.01 and 0.1 mg/kg, 30 min prior to and 6 h after zymosan, P<0.05 Dunnett's test versus control, FIG. 3a) was “significant effect; also recorded: significantly reduced”, the “decrease in the recruitment of neutrophils to the airways” value (Balb/c mice; oral, 0.01 and 0.1 mg/kg, P<0.01 Dunnett's test vs control, FIG. 3c) was 40-50% and the “IFN-γ production in the MLNs” value (OVA-sensitized mice [5]; [8]) was “weak increase”. The “levels of IL-4 in the MLNs” value (OVA-sensitized mice [5]; [8]) was “mildly but significantly reduced”, the “levels of IL-5 in the MLNs” value (OVA-sensitized mice [5]; [8]) was “mildly but significantly reduced” and the “levels of IL-13 in the MLNs” value (OVA-sensitized mice [5]; [8]) was “mildly but significantly reduced”. For the same compound, the “eosinophil infiltrate into the BAL compartment” value (OVA-sensitized mice [5]; [9]) was “significant dose-dependent reduction”, the “lymphocyte infiltrate into the BAL compartment” value (OVA-sensitized mice [5]; [9]) was “significant dose-dependent reduction” and the “macrophage infiltrate into the BAL compartment” value (OVA-sensitized mice [5]; [9]) was “significant dose-dependent reduction”.

In the case of `Cn1cc(C(=O)OCC2CCN(CCNS(C)(=O)=O)CC2)c2ccccc21` [GR113808], the airway hyperresponsiveness (guinea-pigs) is listed as “capable to normalize”.

In the case of `COc1cc(COc2cc(N)c(Cl)cc2C(=O)CCC2CCN(CCNS(C)(=O)=O)CC2)cc(OC)c1` [RS 39604], the “effects of 5-HT” value [6] is listed as “inhibit”.

In the case of `CCCCN1CCC(CNC(=O)c2c3n(c4ccccc24)CCCO3)CC1` [piboserod], the “5-HT4 R-mediated effects of serotonin (5-HT) in the GI tract” value (GI tract [7]; 2000, Bharucha et al.) is listed as “antagonizes” and the normal bowel motility (GI tract [7]; animals or humans, 1998) is listed as “does not seem to affect”.
